We go through 2 sequences from US9896492B2, “HJURP peptides and vaccines including the same” (OncoTherapy Science, Inc., priority 2010, dated 2018).

Assay [1] has as its system peptide-pulsed TISI cells. Briefly: IFN-gamma ELISA assay of CTL lines and clone (HLA-A*2402). Type of assay: cell-based, human. Particulars: for IFN-gamma production of CTL lines (ELISA): CTL line stimulated with peptide, target cells pulsed with peptide vs without peptide pulse. How it is done:
CTLs were expanded in culture using the method similar to the one described by Riddell et al. (Walter E A et al., N Engl J Med 1995 Oct. 19, 333(16): 1038-44; Riddell SR et al., Nat Med 1996 February, 2(2): 216-23). A total of 5×10^4 CTLs were suspended in 25 ml of AIM-V/5% AS medium with 2 kinds of human B-lymphoblastoid cell lines, inactivated by Mitomycin C, in the presence of 40 ng/ml of anti-CD3 monoclonal antibody (Pharmingen). One day after initiating the cultures, 120 IU/ml of IL-2 were added to the cultures. The cultures were fed with fresh AIM-V/5% AS medium containing 30 IU/ml of IL-2 on days 5, 8 and 11 (Tanaka H et al., Br J Cancer 2001 Jan. 5, 84(1): 94-9; Umano Y et al., Br J Cancer 2001 Apr. 20, 84(8): 1052-7; Uchida N et al., Clin Cancer Res 2004 Dec. 15, 10(24): 8577-86; Suda T et al., Cancer Sci 2006 May, 97(5): 411-9; Watanabe T et al., Cancer Sci 2005 August, 96(8): 498-506).
The dilutions were made to have 0.3, 1, and 3 CTLs/well in 96 round-bottomed micro titer plate (Nalge Nunc International). CTLs were cultured with 1×10^4 cells/well of 2 kinds of human B-lymphoblastoid cell lines, 30 ng/ml of anti-CD3 antibody, and 125 U/ml of IL-2 in a total of 150 micro-l/well of AIM-V Medium containing 5% AS. 50 micro-l/well of IL-2 were added to the medium 10 days later so to reach a final concentration of 125 U/ml IL-2. CTL activity was tested on the 14th day, and CTL clones were expanded using the same method as described above (Uchida N et al., Clin Cancer Res 2004 Dec. 15, 10(24): 8577-86; Suda T et al., Cancer Sci 2006 May, 97(5): 411-9; Watanabe T et al., Cancer Sci 2005 August, 96(8): 498-506).
Specifically, peptide-pulsed TISI (1×10^4 cells/well) was prepared as stimulator cells. Cultured cells in 48 wells were used as responder cells. IFN-gamma ELISPOT assay and IFN-gamma ELISA assay were performed under manufacture procedure.
(In general: An ELISA detects its analyte on a solid surface through an enzyme-linked reagent.)

Assay [2] has as its system peptide-pulsed TISI cells. Briefly: In vitro CTL induction, IFN-gamma ELISPOT assay (HLA-A*2402). Type of assay: cell-based, human. Particulars: for Peptide specific CTL activity, IFN-gamma production (ELISPOT): CTLs from HLA-A*2402 positive donor stimulated with peptide-pulsed DCs, against peptide-pulsed target cells vs control; for CTL inducibility / specific CTL activity of CTLs stimulated with the peptide (summary statement): HLA-A24 restricted peptides. The source says:
Monocyte-derived dendritic cells (DCs) were used as antigen-presenting cells (APCs) to induce cytotoxic T lymphocyte (CTL) responses against peptides presented on human leukocyte antigen (HLA). DCs were generated in vitro as described elsewhere (Nakahara S et al., Cancer Res 2003 Jul. 15, 63(14): 4112-8). Specifically, peripheral blood mononuclear cells (PBMCs) isolated from a normal volunteer (HLA-A*2402 positive) by Ficoll-Plaque (Pharmacia) solution were separated by adherence to a plastic tissue culture dish (Becton Dickinson) so as to enrich them as the monocyte fraction. The monocyte-enriched population was cultured in the presence of 1,000 U/ml of granulocyte-macrophage colony-stimulating factor (GM-CSF) (R&D System) and 1,000 U/ml of interleukin (IL)-4 (R&D System) in AIM-V Medium (Invitrogen) containing 2% heat-inactivated autologous serum (AS). After 7 days of culture, the cytokine-induced DCs were pulsed with 20 micro-g/ml of each of the synthesized peptides in the presence of 3 micro-g/ml of beta 2-microglobulin for 3 hrs at 37 degrees C. in AIM-V Medium. The generated cells appeared to express DC-associated molecules, such as CD80, CD83, CD86 and HLA class II, on their cell surfaces (data not shown). These peptide-pulsed DCs were then inactivated by X-irradiation (20 Gy) and mixed at a 1:20 ratio with autologous CD8+ T cells, obtained by positive selection with CD8 Positive Isolation Kit (Dynal). These cultures were set up in 48-well plates (Corning); each well contained 1.5×10^4 peptide-pulsed DCs, 3×10^5 CD8+ T cells and 10 ng/ml of IL-7 (R&D System) in 0.5 ml of AIM-V/2% AS medium. Three days later, these cultures were supplemented with IL-2 (CHIRON) to a final concentration of 20 IU/ml. On days 7 and 14, the T cells were further stimulated with the autologous peptide-pulsed DCs. The DCs were prepared each time by the same way described above. CTL was tested against peptide-pulsed TISI cells after the 3rd round of peptide stimulation on day 21 (Tanaka H et al., Br J Cancer 2001 Jan. 5, 84(1): 94-9; Umano Y et al., Br J Cancer 2001 Apr. 20, 84(8): 1052-7; Uchida N et al., Clin Cancer Res 2004 Dec. 15, 10(24): 8577-86; Suda T et al., Cancer Sci 2006 May, 97(5): 411-9; Watanabe T et al., Cancer Sci 2005 August, 96(8): 498-506). […] Specifically, peptide-pulsed TISI (1×10^4 cells/well) was prepared as stimulator cells. Cultured cells in 48 wells were used as responder cells. IFN-gamma ELISPOT assay and IFN-gamma ELISA assay were performed under manufacture procedure.

The subject of assay [3] is COS7 cells transfected with HJURP and HLA-A*2402. The assay can be described thus: Specific CTL activity against target cells exogenously expressing HJURP and HLA-A*2402. Type of assay: cell-based, African green monkey. Particulars: CTL line raised by the peptide as effector cells; for Specific CTL activity against control COS7 cells expressing either HLA-A*2402 or HJURP: controls. The text has this:
The cDNA encoding an open reading frame of target genes or HLA-A*2402 was amplified by PCR. The PCR-amplified products were cloned into a vector and pIRES vector (Clontech Laboratories, Inc., Cat. No. 631605). The plasmids were transfected into COS7, which is the target genes and HLA-A24 negative cell line, using lipofectamine 2000 (Invitrogen) according to the manufacturer's recommended procedures. After 2 days from transfection, the transfected cells were harvested with versene (Invitrogen) and used as the target cells (5×10^4 cells/well) for CTL activity assay.
The established CTL line raised against these peptides were examined for their ability to recognize target cells that endogenously express HJURP and HLA-A*2402 gene. […] COS7 cells transfected with either full length of HJURP genes or HLA-A*2402 were prepared as controls.

“Also recorded” adds a separate entry of the source.

On to KWLISPVKI [SEQ ID NO: 7], for which the “IFN-gamma production of CTL clone (ELISA)” value in assay [1] (CTL clone established by limiting dilution, target cells pulsed with peptide vs control, listed as HJURP-A24-9-408) is recorded as “potent IFN-gamma production”. Besides, in assay [1], the “IFN-gamma production of CTL lines (ELISA)” value is “potent IFN-gamma production”. Further, the “Peptide specific CTL activity, IFN-gamma production (ELISPOT)” value in assay [2] is recorded as “potent IFN-gamma production”. Moreover, in assay [2] (listed as HJURP-A24-9-408), the “CTL inducibility / specific CTL activity of CTLs stimulated with the peptide (summary statement)” value is “significant and specific CTL activity”. Also, the “Specific CTL activity against control COS7 cells expressing either HLA-A*2402 or HJURP” value in assay [3] is recorded as “no significant specific CTL activity was detected”. Further, in assay [3] (listed as HJURP-A24-9-408), the “Specific CTL activity against COS7 cells transfected with both HJURP and HLA-A*2402” value is “potent CTL activity; also recorded: specific CTL activity”.

In the case of LYAGMLHSM [SEQ ID NO: 4], in assay [1], the “IFN-gamma production of CTL lines (ELISA)” value is given as “potent IFN-gamma production”. For the same sequence, in assay [2], the “Peptide specific CTL activity, IFN-gamma production (ELISPOT)” value is “potent IFN-gamma production”; the “CTL inducibility / specific CTL activity of CTLs stimulated with the peptide (summary statement)” value is “significant and specific CTL activity”. Further, the “Specific CTL activity against control COS7 cells expressing either HLA-A*2402 or HJURP” value in assay [3] is on record as “no significant specific CTL activity was detected”. Further, the “Specific CTL activity against COS7 cells transfected with both HJURP and HLA-A*2402” value in assay [3] (listed as HJURP-A24-9-263) is given as “potent CTL activity; also recorded: specific CTL activity”.
